The values that follow come from paper PMC7822874, “Chemoprotective antimalarials identified through quantitative high-throughput screening of Plasmodium blood and liver stage parasites” (Scientific Reports, 2021).

The test system of one experiment is Plasmodium falciparum Dd2 asexual blood stage parasites. As to the kind of experiment: microbe, parasite or virus in culture. Particulars: Plasmodium falciparum, DD2, Erythrocyte, 72 h. Further details: species or system Plasmodium falciparum Dd2 in human erythrocytes; single determination (one 11-point concentration-response curve).
Take `O=C(c1ccco1)c1cn(CCOc2ccc(F)cc2)c2ccccc12` [NCGC00101884-01]: the half-maximal activity concentration (AC50) (usually the midpoint of the concentration-response curve, whichever way the signal moves) is 6.68 µM.

For the compound `Cc1cccc(OC(C)C(=O)NCC2(N(C)C)CCCCC2)c1C` (centres unmarked) [NCGC00118727-01], the half-maximal activity concentration (AC50) was determined as 8.41 µM.

The same experiment, now with this note: Plasmodium falciparum, DD2, Erythrocyte, 72 h; read-out: AC50.
As to `COc1ccc(CNC[C@H]2O[C@H](Cc3cc(-c4ccc(OC)cc4)on3)CC[C@@H]2O)cc1` [NCGC00401026-01], the half-maximal activity concentration (AC50) stood at 10.6 µM. `O=C(NC(S)=Nc1ccc(NC(=O)c2cccs2)cc1)c1ccco1` [MLS000567605-01]: the half-maximal activity concentration (AC50) is 9.44 µM. Turning to `CCOC(=O)C1(c2ccccc2)CCN(CCC(C#N)(c2ccccc2)c2ccccc2)CC1` [NCGC00167963-01], the concentration at half-maximal activity (AC50) came to 5.31 µM. Regarding `COc1ccc(-c2cc(-c3cccc(NC(C)=O)c3)cn3cncc23)cn1` [NCGC00412201-01], the AC50 came to 21.7 µM.

As for `Oc1ccc(-c2nc(C3CC3)nc3c2CN(CC2CCCCC2)CC3)cc1` [NCGC00480438-01], the concentration at half-maximal activity (AC50) is 6.68 µM. In the case of `CCCc1nc2ccc(NC(=O)c3cccs3)cc2c(=O)n1Cc1ccc(Cl)cc1` [MLS000569177-01], the AC50 was 8.41 µM. Same read-out and setting: then `Cc1cccc(OCCSc2nc3ccc(NC(=O)c4cccs4)cc3s2)c1` [NCGC00118842-01], with 9.44 µM; and `CC(=O)C1=C(c2ccccc2)N(C(C)=O)n2c(nnc2C2CCCCC2)S1` [NCGC00137174-01], with 4.22 µM. Same read-out and setting: as for `CC(=O)Nc1cccc(OCc2nnc(C(=O)N3CCC[C@@H]3C(c3ccccc3)c3ccccc3)n2-c2ccccc2)c1` [NCGC00415783-01], the figure is 10.6 µM; as for `COc1cc(Br)c(C2CC(=O)Nc3cc4c(cc32)OCCO4)cc1OC` (centres unmarked) [NCGC00107079-01], 2.37 µM. In the case of `COC(=O)c1cc(O)cc(OC)c1Oc1cc(C)cc(O)c1C(=O)O` [MLS000863583-01], the AC50 was found to be 4.22 µM. As to `Cc1cc2cc(-c3c(C)noc3C)nc(N(C)CCN(C)C)c2o1` [NCGC00417474-01], the concentration at half-maximal activity (AC50) worked out at 12.2 µM. Regarding `C[C@H]1[C@@H]2[C@@H](O)C([C@H](C)C(=O)NCc3cc(F)cc(F)c3)CC[C@@]2(C)CC[C@@H]1NC(=O)c1cncnc1` (some centres unmarked) [NCGC00395377-01], the concentration at half-maximal activity (AC50) stood at 4.22 µM.

Consider `Cc1cc(Nc2ccc(Br)cc2)n2nc(C)nc2n1` [MLS000116653-01], for which the AC50 amounted to 7.5 µM. Same read-out and setting: as for `CCCOc1ccc(Oc2nc(-c3ccncc3)nc3ccccc23)cc1` [MLS000769540-01], the figure is 4.22 µM.

Take `C#Cc1ccc(C(=O)Nc2ccc(N3CCC(C)CC3)c(C(N)=O)c2)cc1` [MLS000764680-01]: the half-maximal activity concentration (AC50) stood at 6.68 µM. Regarding `COc1cc2c(cc1OC1CCCC1)NC(=O)C21CCN(c2cnccn2)CC1` [NCGC00416906-01], the concentration at half-maximal activity (AC50) turned out to be 7.69 µM. With `CC1CCCN(Cc2c(O)ccc3c(=O)c(Oc4ccc(C(C)(C)C)cc4)c(C(F)(F)F)oc23)C1` (centres unmarked) [NCGC00100587-01], the AC50 was 0.299 µM. For the compound `COc1cccc(-c2cc(C(=O)Nc3cc(Cl)ccc3O)on2)c1` [NCGC00121773-01], the AC50 was found to be 4.73 µM. On to `Cc1cccc(-c2cc(C(=O)Nc3ccncc3)c3ccccc3n2)c1` [MLS001147429-01], for which the AC50 is 8.41 µM.

With `COc1ccc(NC(=O)O[C@@H]2CC[C@]3(C)C(CC[C@@H](O)[C@H]3CC(=O)NCc3ccccc3OC)[C@]2(C)CO)cc1` (some centres unmarked) [NCGC00398535-01], the half-maximal activity concentration (AC50) stood at 6.68 µM.

`O=C(NCC(c1ccco1)N1CCCC1)c1ccc(Cl)cc1` (centres unmarked) [MLS000570686-01]: the concentration at half-maximal activity (AC50) came out at 8.41 µM.

In the case of `CCCCCCCNC(=O)C1(CC2CC(c3cccc(Br)c3)=NO2)CCN(C(=O)c2cc(OCC)c(OCC)c(OCC)c2)CC1` (centres unmarked) [MLS001144006-01], the half-maximal activity concentration (AC50) was 10.6 µM.

On to `CCCC(O)c1nc2ccccc2n1CCCCOc1ccc(OC)cc1` (centres unmarked) [NCGC00119455-01], for which the AC50 turned out to be 15 µM. Consider `Cc1ccc(-c2noc(-c3ccccc3NC(=O)C3CC(=O)N(c4ccc(C)cc4)C3)n2)cc1` (centres unmarked) [NCGC00119552-01], for which the AC50 turned out to be 4.22 µM. As to `CCC(CC)c1cc([C@H]2CN3CC[C@H]2C[C@@H]3CNC(=O)c2ccc(C)cc2)nc(-c2ccncc2)n1` [NCGC00400216-01], the AC50 was determined as 10.6 µM.

Regarding `Cn1cc(C(=O)NCCN2CCN(c3cccc(Cl)c3)CC2)c2c3ccccc3n(C)c2c1=O` [MLS000086993-01], the AC50 was determined as 4.73 µM.
